The record followed here is paper PMC10510381, “Alkyne as a Latent Warhead to Covalently Target SARS-CoV-2 Main Protease” (Journal of Medicinal Chemistry, 2023).

In one data set the test system is HEK293T proteome. The experiment in a line: Proteomic labeling of parental HEK293T cells (in-gel fluorescence). Type of data set: cell-based, human.
Data set [1] has as its target M^pro expressed in HEK293T cells (Severe acute respiratory syndrome coronavirus 2, UniProt P0DTD1). Type of data set: cell-based. The conditions noted are these: HEK293T transiently transfected with M^pro.
The target in a further data set is recombinant M^pro (Severe acute respiratory syndrome coronavirus 2, UniProt P0DTD1). Type of data set: binding.
The next data set has as its system HeLa proteome. It counts as cell-based, human.
For a further data set, the target named is SARS-CoV-2 M^pro (Severe acute respiratory syndrome coronavirus 2, UniProt P0DTD1). As to the kind of experiment: biochemical. The conditions noted are these: for inhibition against M^pro: up to 80 μM.
In the next data set the test system is SARS-CoV-2. It counts as cell-based.
Where [2] appears, read: 15-min treatment of M^pro (0.5 μM), FRET substrate 20 μM, both duplicate values given, read-out: IC50.
Setting [3] is: 15-min pre-incubation, read-out: IC50 (average of duplicate).

Several values for one entry are separate records, joined by “and”; a condition that tells them apart may be missing. Equal values may be shown once. Entries after “also recorded” stand apart in the source; their conditions may differ. Read-outs that look alike come from different tables or passages of the source. Residues, ends and D or L forms follow the SMILES beside them. *: point of attachment. Cbz = O=C(OCc1ccccc1)*

With `C#CC[C@H](NC(=O)C(F)(F)F)C(=O)N1C[C@H]2[C@@H]([C@H]1C(=O)N[C@H](C#C)C[C@@H]1CCNC1=O)C2(C)C` [Alk-4d, O=C1NCC[C@H]1C[C@@H](C#C)NC([C@H]2N(C([C@@H](NC(C(F)(F)F)=O)CC#C)=O)C[C@H]3[C@@H]2C3(C)C)=O], the “proteome labeling, HEK293T cells” value with HEK293T proteome (1 hour, up to 30 μM) was “little labeling; also recorded: did not label any proteins”. Besides, the “proteome labeling, HEK293T cells” value in the data set on HEK293T proteome (5 h, all tested concentrations) is reported as “little proteome labeling”. Also, in data set [1], the “labeling of M^pro in live cells” value is reported as “dose-dependent labeling”. For the same compound, at recombinant M^pro (1 h treatment), the “probe concentration for efficient labeling of M^pro” value is “above 1 μM” and the “probe concentration reaching saturation of M^pro labeling” value turned out to be 3 µM. For the same compound, the “proteome labeling, HeLa cells” value in the data set on HeLa proteome is “little labeling”.
`C#CC[C@H](NC(=O)C(F)(F)F)C(=O)N1C[C@H]2[C@@H]([C@H]1C(=O)N[C@H](C#CC(F)(F)F)C[C@@H]1CCNC1=O)C2(C)C` [Alk-4i, O=C1NCC[C@H]1C[C@@H](C#CC(F)(F)F)NC([C@H]2N(C([C@@H](NC(C(F)(F)F)=O)CC#C)=O)C[C@H]3[C@@H]2C3(C)C)=O]: the “proteome labeling, HEK293T cells” value in the data set with HEK293T proteome (5 h, 10 μM) is “significant labeling”. At recombinant M^pro, the “lowest concentration tested, giving intense labeling of M^pro” value came out at 300 nM. Moreover, the “incubation time to label M^pro near saturation” value at recombinant M^pro (time-course) is on record as 5 min.
In the case of `CC(C)C[C@H](NC(=O)OCc1ccccc1)C(=O)N[C@H](/C=C/C(=O)OCc1ccccc1)CCC(N)=O` [Compound 1a, O=C(N[C@@H](CCC(N)=O)/C=C/C(OCC1=CC=CC=C1)=O)[C@H](CC(C)C)NC(OCC2=CC=CC=C2)=O], the IC50 at SARS-CoV-2 M^pro (setting [2]) was 2.5 µM and 3.9 µM.
Same read-out and setting: as for `CC(C)C[C@H](NC(=O)OCc1ccccc1)C(=O)N[C@H](/C=C/S(C)(=O)=O)CCC(N)=O` [Compound 1b, O=C(N[C@@H](CCC(N)=O)/C=C/S(C)(=O)=O)[C@H](CC(C)C)NC(OCC1=CC=CC=C1)=O], the figure is 12 µM and 18 µM.
For the compound `CNS(=O)(=O)/C=C/[C@H](CCC(N)=O)NC(=O)[C@H](CC(C)C)NC(=O)OCc1ccccc1` [Compound 1c, O=C(N[C@@H](CCC(N)=O)/C=C/S(=O)(NC)=O)[C@H](CC(C)C)NC(OCC1=CC=CC=C1)=O], the IC50 was 47 µM at SARS-CoV-2 M^pro (setting [3]); 39 µM and 55 µM at SARS-CoV-2 M^pro (setting [2]).
As for `C#C[C@H](CCC(N)=O)NC(=O)[C@H](CC(C)C)NC(=O)OCc1ccccc1` [Compound 1d, O=C(N[C@@H](CCC(N)=O)C#C)[C@H](CC(C)C)NC(OCC1=CC=CC=C1)=O], the IC50 on SARS-CoV-2 M^pro (setting [2]) was 35 µM and 60 µM.
As for `CC(C)C[C@H](NC(=O)OCc1ccccc1)C(=O)N[C@H](C=O)CCC(N)=O` [Compound 1e, O=C(N[C@@H](CCC(N)=O)C([H])=O)[C@H](CC(C)C)NC(OCC1=CC=CC=C1)=O] (Cbz-Leu-Gln-aldehyde), at SARS-CoV-2 M^pro (setting [2]), the IC50 is over 80 µM. The “inhibition against M^pro” value against SARS-CoV-2 M^pro was “failed to cause significant inhibition”.
Take `CC(C)C[C@H](NC(=O)OCc1ccccc1)C(=O)N[C@@H](CCC(N)=O)C(=O)C(=O)NCc1ccccc1` [Compound 1f, O=C(N[C@@H](CCC(N)=O)C(C(NCC1=CC=CC=C1)=O)=O)[C@H](CC(C)C)NC(OCC2=CC=CC=C2)=O]: the IC50 at SARS-CoV-2 M^pro (setting [2]) was over 80 µM. At SARS-CoV-2 M^pro, the “inhibition against M^pro” value is reported as “failed to cause significant inhibition”.
On the same counts, the results for `CC(C)C[C@H](NC(=O)OCc1ccccc1)C(=O)N[C@H](C#N)CCC(N)=O` [Compound 1g, O=C(N[C@@H](CCC(N)=O)C#N)[C@H](CC(C)C)NC(OCC1=CC=CC=C1)=O] are over 80 µM and “failed to cause significant inhibition”.
With `C#C[C@H](CCC(N)=O)NC(=O)[C@H](CC(C)C)NC(=O)c1cc2c(OC)cccc2[nH]1` [Compound 2d, O=C(N[C@@H](CCC(N)=O)C#C)[C@H](CC(C)C)NC(C1=CC2=C(C=CC=C2OC)N1)=O], the IC50 on SARS-CoV-2 M^pro (15-min pre-incubation, both duplicate values given, read-out: IC50 uM (15-min pre-incubation)) was 22 µM; on SARS-CoV-2 M^pro (setting [2]), 22 µM.
For the compound `COc1cccc2[nH]c(C(=O)N[C@@H](CC(C)C)C(=O)N[C@H](C#N)CCC(N)=O)cc12` [Compound 2g, O=C(N[C@@H](CCC(N)=O)C#N)[C@H](CC(C)C)NC(C1=CC2=C(C=CC=C2OC)N1)=O], the IC50 on SARS-CoV-2 M^pro (setting [2]) was 29 µM and 30 µM.
As for `C#C[C@H](C[C@@H]1CCNC1=O)NC(=O)[C@H](CC(C)C)NC(=O)c1cc2c(OC)cccc2[nH]1` [Compound 3d, O=C(N[C@@H](C[C@H]1C(NCC1)=O)C#C)[C@H](CC(C)C)NC(C2=CC3=C(C=CC=C3OC)N2)=O], the IC50 on SARS-CoV-2 M^pro (setting [3]) is about 7 µM; at SARS-CoV-2 M^pro (setting [2]), 10 µM and 4.4 µM.
Take `CC(C)(C)[C@H](NC(=O)C(F)(F)F)C(=O)N1C[C@H]2[C@@H]([C@H]1C(=O)N[C@H](C=O)C[C@@H]1CCNC1=O)C2(C)C` [Compound 4e, O=C1NCC[C@H]1C[C@@H](C([H])=O)NC([C@H]2N(C([C@@H](NC(C(F)(F)F)=O)C(C)(C)C)=O)C[C@H]3[C@@H]2C3(C)C)=O]: the IC50 at SARS-CoV-2 M^pro (setting [2]) is 0.29 µM and 0.3 µM.
Regarding `CC(C)(C)[C@H](NC(=O)C(F)(F)F)C(=O)N1C[C@H]2[C@@H]([C@H]1C(=O)N[C@H](C#N)C[C@@H]1CCNC1=O)C2(C)C` [Compound 4g, nirmatrelvir, reference compound], the cytotoxicity entry in the data set on Hela-ACE2 cells (up to the highest concentration tested, 10 μM, 20 h) is listed as “no notable cytotoxicity”.
Turning to `CC(C)(C)[C@H](NC(=O)C(F)(F)F)C(=O)N1C[C@H]2[C@@H]([C@H]1C(=O)N[C@@H](C[C@@H]1CCNC1=O)C(N)=O)C2(C)C` [Compound 4h, O=C1NCC[C@H]1C[C@@H](C(N)=O)NC([C@H]2N(C([C@@H](NC(C(F)(F)F)=O)C(C)(C)C)=O)C[C@H]3[C@@H]2C3(C)C)=O], at SARS-CoV-2 M^pro (setting [2]), the IC50 is over 80 µM.
Regarding `CC(C)(C)[C@H](NC(=O)C(F)(F)F)C(=O)N1C[C@H]2[C@@H]([C@H]1C(=O)N[C@H](C#CC(F)(F)F)C[C@@H]1CCNC1=O)C2(C)C` [Compound 4i, O=C1NCC[C@H]1C[C@@H](C#CC(F)(F)F)NC([C@H]2N(C([C@@H](NC(C(F)(F)F)=O)C(C)(C)C)=O)C[C@H]3[C@@H]2C3(C)C)=O], the antiviral activity entry with SARS-CoV-2 is reported as “strong, dose-dependent antiviral activity”. In addition, the anti-COVID activity entry with SARS-CoV-2 (sub-micromolar concentrations, HeLa-ACE2, 24 h) is “significant anti-COVID activity”. Also, the cytotoxicity entry in the data set with Hela-ACE2 cells is “no notable cytotoxicity”. The “concentration sufficient to abolish labeling of M^pro” value at recombinant M^pro (competition with 10 μM Alk-4d) came out at 1 µM.

As usually defined, the IC50 is the midpoint of a concentration-inhibition curve.
